In brackets after ≈: the same amount, converted by molar mass. Read-outs that look alike come from different tables or passages of the source. Positions of bridges follow the written chain, without caps; N, C: chain ends. Non-standard residues stand in square brackets, D forms with d. Residues, ends and D or L forms follow the SMILES beside them. *: point of attachment. Benzoyl(4-Ph) = O=C(c1ccc(-c2ccccc2)cc1)*; Decanoyl(3R-OH) = CCCCCCC[C@@H](O)CC(=O)*; Ala(cPr) = N[C@@H](CC1CC1)C(=O)O; X4 = CCCCCOc1ccc(C(=O)*)cc1; dOrn = NCCC[C@@H](N)C(=O)O; dDab = NCC[C@@H](N)C(=O)O; Dab = NCC[C@H](N)C(=O)O
How the values were obtained:
[1] = test system: S. aureus ATCC 25923, MSSA; conditions: ATCC 25923
Outline: (§1)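 Mid-log cultures grown in Mueller Hinton broth at 37° C were tested by 2-fold broth microdilution at 5×10^5 CFU/mL final. Compounds were dissolved in water and tested over a final range of 32 to 0.015 μg/mL.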

[2] = test system: P. aeruginosa GN_105, PmxR; conditions: GN 105, PmxR
Outline: as §1

[3] = test system: K. pneumoniae ATCC BAA-2146, NDM-1 pos; conditions: ATCC BAA-2146
Outline: as §1

[4] = test system: K. pneumoniae ATCC 700603, MDR; conditions: ATCC 700603
Outline: as §1

[5] = test system: P. aeruginosa GN_043, PmxR
Outline: as §1

A. baumannii GN_093 PmxR = conditions: GN 093 PmxR
Outline: as §1

E. coli ATCC 25922 = conditions: ATCC 25922
Outline: as §1

K. pneumoniae ATCC 13883 = conditions: ATCC 13883
Outline: as §1

[6] = test system: K. pneumoniae GN_106, PmxR; conditions: GN 106, PmxR
Outline: as §1

[7] = test system: K. pneumoniae GN_102 PmxR; conditions: GN 102 PmxR
Outline: as §1

P. aeruginosa ATCC 27853 = conditions: ATCC 27853
Outline: as §1

A. baumannii ATCC 19606 = conditions: ATCC 19606
Outline: as §1

in vitro = conditions: human
Outline: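 Cells (4000/well, pre-attached 24 h) then received 5 μM resazurin for 2 h, with fluorescence measured at ex 560/em 590.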

| SMILES | MIC S. aureus ATCC 25923, MSSA [1] | MIC P. aeruginosa GN_105, PmxR [2] | MIC K. pneumoniae ATCC BAA-2146, NDM-1 pos [3] | MIC K. pneumoniae ATCC 700603, MDR [4] | MIC P. aeruginosa GN_043, PmxR ([5]; P. aeruginosa GN_043, PmxR) | MIC A. baumannii GN_093 PmxR (A. baumannii GN_093 PmxR) | MIC E. coli ATCC 25922 (E. coli ATCC 25922) | MIC K. pneumoniae ATCC 13883 (K. pneumoniae ATCC 13883) | MIC K. pneumoniae GN_106, PmxR [6] | MIC K. pneumoniae GN_102 PmxR [7] | MIC P. aeruginosa ATCC 27853 (P. aeruginosa ATCC 27853) | MIC A. baumannii ATCC 19606 (A. baumannii ATCC 19606) | CC50 at 24 h (in vitro) | MIC, K. pneumoniae ATCC BAA-2146, NDM-1 pos [3] | MIC, K. pneumoniae ATCC 700603, MDR [4] | MIC, E. coli ATCC 25922 (E. coli ATCC 25922) | MIC, K. pneumoniae ATCC 13883 (K. pneumoniae ATCC 13883) | MIC, P. aeruginosa ATCC 27853 (P. aeruginosa ATCC 27853) | MIC, A. baumannii ATCC 19606 (A. baumannii ATCC 19606) | other results |
| --- | --- | --- | --- | --- | --- | --- | --- | --- | --- | --- | --- | --- | --- | --- | --- | --- | --- | --- | --- | --- |
| CCCCCCC[C@@H](O)CC(=O)N[C@H](CC(N)=O)C(=O)N[C@H]1CCNC(=O)[C@H](CC(C)C)NC(=O)[C@H](CCN)NC(=O)[C@H](CCN)NC(=O)[C@H](Cc2ccccc2)NC(=O)[C@@H](CC(C)C)NC(=O)[C@H](CCN)NC1=O [compound 6432, 3(R)OH-nC9CO-D-Asn-cyc[L-Dab-L-Dab-D-Leu-L-Phe-L-Dab-L-Dab-L-Leu]] ({Decanoyl(3R-OH)}-[dN][Dab][Dab][dL]F[Dab][Dab]L; lactam 2-C) | >32 µg/mL | 8 µg/mL (≈ 7.56 µM) | 16 µg/mL (≈ 15.1 µM) | 16 µg/mL (≈ 15.1 µM) | 4 µg/mL (≈ 3.78 µM) | >32 µg/mL | 16 µg/mL (≈ 15.1 µM) | 16 µg/mL (≈ 15.1 µM) | 4 µg/mL (≈ 3.78 µM) | 4 µg/mL (≈ 3.78 µM) | 16 µg/mL (≈ 15.1 µM) | 32 µg/mL (≈ 30.2 µM) | > 300 µM |  |  |  |  |  |  |  |
| CCCCCCC[C@@H](O)CC(=O)N[C@H](CCCN)C(=O)N[C@H]1CCNC(=O)[C@H](CC(C)C)NC(=O)[C@H](CCN)NC(=O)[C@H](CCN)NC(=O)[C@H](CC(C)C)NC(=O)[C@@H](Cc2ccccc2)NC(=O)[C@H](CCN)NC1=O [compound 6443, 3(R)OH-nC9CO-D-Orn-cyc[L-Dab-L-Dab-D-Phe-L-Leu-L-Dab-L-Dab-L-Leu]] ({Decanoyl(3R-OH)}-[dOrn][Dab][Dab][dF]L[Dab][Dab]L; lactam 2-C) |  | 2 µg/mL (≈ 1.89 µM) |  |  |  | 16 µg/mL (≈ 15.1 µM) |  |  | 4 µg/mL (≈ 3.78 µM) | 4 µg/mL (≈ 3.78 µM) |  |  | > 300 µM | 8 µg/mL (≈ 7.56 µM) | 8 µg/mL (≈ 7.56 µM) | 8 µg/mL (≈ 7.56 µM) | 8 µg/mL (≈ 7.56 µM) | 2 µg/mL (≈ 1.89 µM) | 16 µg/mL (≈ 15.1 µM) | MIC, S. aureus ATCC 25923, MSSA [1]: 32 µg/mL (≈ 30.2 µM); MIC P. aeruginosa GN_043, PmxR ([5]; Table 6, polymyxin-resistant): 2 µg/mL (≈ 1.89 µM) |
| CCCCCOc1ccc(C(=O)N[C@H](CCN)C(=O)N[C@H]2CCNC(=O)[C@H](CC(C)C)NC(=O)[C@H](CCN)NC(=O)[C@H](CCN)NC(=O)[C@H](Cc3ccccc3)NC(=O)[C@@H](CC(C)C)NC(=O)[C@H](CCN)NC2=O)cc1 [compound 6520, 4-(pentyloxy)benzoic acid-D-Dab-cyc[L-Dab-L-Dab-D-Leu-L-Phe-L-Dab-L-Dab-L-Leu]] (X4-[dDab][Dab][Dab][dL]F[Dab][Dab]L; lactam 2-C) | 32 µg/mL (≈ 30.1 µM) | 4 µg/mL (≈ 3.76 µM) | 8 µg/mL (≈ 7.52 µM) | 8 µg/mL (≈ 7.52 µM) | 4 µg/mL (≈ 3.76 µM) | 32 µg/mL (≈ 30.1 µM) | 2 µg/mL (≈ 1.88 µM) | 32 µg/mL (≈ 30.1 µM) | >32 µg/mL | 32 µg/mL (≈ 30.1 µM) | 4 µg/mL (≈ 3.76 µM) | >32 µg/mL | > 300 µM |  |  |  |  |  |  |  |
| CC(C)C[C@@H]1NC(=O)[C@H](CCN)NC(=O)[C@H](CCN)NC(=O)[C@H](CC(C)C)NC(=O)[C@@H](Cc2ccccc2)NC(=O)[C@H](CCN)NC(=O)[C@@H](NC(=O)[C@@H](CCN)NC(=O)c2ccc(-c3ccccc3)cc2)CCNC1=O [compound 6526, Ph-4-PhCO-D-Dab-cyc[L-Dab-L-Dab-D-Phe-L-Leu-L-Dab-L-Dab-L-Leu]] ({Benzoyl(4-Ph)}-[dDab][Dab][Dab][dF]L[Dab][Dab]L; lactam 2-C) | >32 µg/mL | 4 µg/mL (≈ 3.79 µM) | 8 µg/mL (≈ 7.59 µM) | 8 µg/mL (≈ 7.59 µM) |  | >32 µg/mL | 8 µg/mL (≈ 7.59 µM) | 8 µg/mL (≈ 7.59 µM) | >32 µg/mL | 32 µg/mL (≈ 30.4 µM) | 2 µg/mL (≈ 1.9 µM) | >32 µg/mL | > 300 µM |  |  |  |  |  |  | MIC P. aeruginosa GN_043, PmxR [5]: 1 µg/mL (≈ 0.948 µM) |
| CCCCCCC[C@@H](O)CC(=O)N[C@H](CCN)C(=O)N[C@H]1CCNC(=O)[C@H](CC(C)C)NC(=O)[C@H](CCN)NC(=O)[C@H](CCN)NC(=O)[C@H](CC(C)C)NC(=O)[C@@H](Cc2ccccc2)NC(=O)[C@H](CCNC(=O)[C@@H](N)CCCNC(=N)N)NC1=O [compound 6655, 3(R)OH-nC9CO-D-Dab-cyc[L-Dab-L-Dab(L-Arg)-D-Phe-L-Leu-L-Dab-L-Dab-L-Leu]] ({Decanoyl(3R-OH)}-[dDab][Dab][Dab](Arg)[dF]L[Dab][Dab]L; lactam 2-C) |  |  |  |  |  |  |  |  |  |  |  |  | > 300 µM | 16 µg/mL (≈ 13.3 µM) | 8 µg/mL (≈ 6.66 µM) | 8 µg/mL (≈ 6.66 µM) | 32 µg/mL (≈ 26.7 µM) | 4 µg/mL (≈ 3.33 µM) | 32 µg/mL (≈ 26.7 µM) | MIC, S. Aureus ATCC 25923, MSSA [1]: 16 µg/mL (≈ 13.3 µM); MIC, P. aeruginosa PA9704, PmxR [2]: 4 µg/mL (≈ 3.33 µM); MIC, P. aeruginosa FADDI-PA070, PmxR ([5]; Table 5, polymyxin-resistant): 4 µg/mL (≈ 3.33 µM); MIC, A. baumannii Cl Ptyela 10073 4512:2, PmxR (A. baumannii GN_093 PmxR): >32 µg/mL; MIC, K. pneumoniae Cl 138-16347-20362, PmxR [6]: >32 µg/mL; MIC, K. pneumoniae Cl Koprana 10065 0661:1, PmxR [7]: 16 µg/mL (≈ 13.3 µM) |
| CCCCCCC[C@@H](O)CC(=O)N[C@H](CCN)C(=O)N[C@H]1CCNC(=O)[C@H](Cc2c[nH]c3ccccc23)NC(=O)[C@H](CCN)NC(=O)[C@H](CCN)NC(=O)[C@H](CC2CC2)NC(=O)[C@@H](Cc2ccccc2)NC(=O)[C@H](CCN)NC1=O [compound 8099, 3(R)OH-nC9CO-D-Dab-cyc[L-Dab-L-Dab-D-Phe-L-Ala(cycloprop)-L-Dab-L-Dab-L-Trp]] ({Decanoyl(3R-OH)}-[dDab][Dab][Dab][dF][Ala(cPr)][Dab][Dab]W; lactam 2-C) | 16 µg/mL (≈ 14.3 µM) | >32 µg/mL | 4 µg/mL (≈ 3.59 µM) | 8 µg/mL (≈ 7.17 µM) |  | 16 µg/mL (≈ 14.3 µM) | 8 µg/mL (≈ 7.17 µM) | 8 µg/mL (≈ 7.17 µM) | 4 µg/mL (≈ 3.59 µM) | 4 µg/mL (≈ 3.59 µM) | 2 µg/mL (≈ 1.79 µM) | 8 µg/mL (≈ 7.17 µM) | 73 µM |  |  |  |  |  |  | MIC P. aeruginosa GN_043, PmxR ([5]; polymyxin-resistant): 2 µg/mL (≈ 1.79 µM) |

Reference: US11279733B2, “Peptide antibiotics” (priority 2017, dated 2022)
